What was measured:
[1] = biological target: T1, Hb (Homo sapiens, UniProt P68871+P69905); assay: Effect on Hb affinity for oxygen (oxygen equilibrium curve study) using normal whole blood; assay type: cell-based; conditions: 2 mM compound; for ΔP50: versus DMSO control, whole blood; for N (Hill coefficient) / P50: whole blood (Hct ~29%), 37° C.
T1 construct: Normal whole blood used in some of the functional assays was collected from adult donors; from tissue; host or cells: normal human whole blood (red cells) from adult donors
T1 sequence (P69905 2-142 limits assumed): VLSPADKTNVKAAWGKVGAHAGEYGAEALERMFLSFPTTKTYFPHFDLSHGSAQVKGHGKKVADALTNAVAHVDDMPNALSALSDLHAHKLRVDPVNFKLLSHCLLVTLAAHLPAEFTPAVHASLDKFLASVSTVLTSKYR
T1 sequence (P68871 2-147 limits assumed): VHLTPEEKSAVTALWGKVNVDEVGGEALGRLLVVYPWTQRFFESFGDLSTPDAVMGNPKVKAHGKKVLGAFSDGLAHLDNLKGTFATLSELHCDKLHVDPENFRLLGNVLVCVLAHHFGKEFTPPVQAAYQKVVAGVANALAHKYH
From the text: RSR-13 is an allosteric effector of Hb that acts by decreasing Hb affinity for O2, and as a result allows release of more O2 to tissues.^26 In this study, a nitrate ester moiety was incorporated onto RSR-13. It was proposed that, in vivo, the NO will cleave off, resulting in the parent compound and free NO, the former acting as right-shifter of the oxygen equilibrium curve while the latter is released into the vasculature. The following describe the synthesis of three nitrate esters of RSR-13, including DD-1, DD-2 and DD-3 (FIGS. 1-3). Other NO containing RSR-13 derivatives, such as those referenced above may be synthesized according to the same or similar processes. Normal whole blood used in some of the functional assays was collected from adult donors at the Virginia Commonwealth University after informed consent. Hb used for structural studies was purified from discarded normal blood samples. The use of these human samples is in accordance with regulations of the IRB for Protection of Human Subjects.
The effect of DD-1 on Hb affinity for oxygen was studied using whole blood with RSR-13 as a positive control. Solution of DD-1 and RSR-13 was added to 2 mL of whole blood (Hemocrit of ˜29%) to make a final drug concentration of 2 mM. Time-dependent studies were carried out at various time points (ranging from 1 h to 12 h) at 37° C. Briefly, blood-drug mixture samples at various time points were incubated in IL 237 tonometer (Instrumentation Laboratories, Inc., Lexington, Mass.) for about 5-7 min at 37° C. against gas mixture containing O2 concentrations of 0.804%, 2.935% and 8.785% and allowed to equilibrate at O2 tensions of 6, 20, 60 mmHg, respectively. After equilibration, the sample was removed via syringe and aspirated into a ABL 700 series table top automated blood gas analyzer (Radiometer America, Inc., Westlake, Ohio) to determine total hemoglobin (tHb), hematocrit (Hct), pH, pCO2, partial pressure of oxygen (pO2), and the Hb oxygen saturation values (sO2). The measured values of pO2 and sO2 at each oxygen saturation level were then subjected to a non-linear regression analysis using the program Scientist (Micromath, Salt Lake City, Utah) with the following equation:
[formula] This equation was used to calculate P50 and Hill coefficient (N) values. Corresponding control experiments without the test compound (P50control) but containing DMSO were also performed.

[2] = Stability of DMSO stock solution checked by UPLC-MS; assay type: physicochemical; conditions: 100 μM in DMSO, 3 months at −20° C., at least 6 freeze-thaw cycles
Experimental: The stability of nitrate esters was checked by performing UPLC-MS on a previously prepared stock solution of DD-1. A 100 μM stock solution was prepared in DMSO and stored for 3 months at −20° C. during which time it was exposed to at least 6 freeze-thaw cycles.

[3] = Griess assay of nitric oxide release (quantitated as NO2- release); assay type: physicochemical; conditions: 2 mM solution in 0.1 M phosphate buffer pH 7.4 mixed with 36 mM L-cysteine, 37° C., anaerobic
Experimental: A Griess assay was used to measure the NO releasing ability of DD-1 following literature procedures.^29-31 Solution of the test compound (1 mL of a 2 mM solution in 0.1 M phosphate buffer (pH 7.4)) was mixed thoroughly with a freshly prepared solution of L-cysteine (1 mL of a 36 mM solution in 0.1 M phosphate buffer, pH 7.4), and incubated at 37° C. for 1 and 16 h under anaerobic conditions. After exposure to air for 10 min at 25° C., an aliquot of the Griess reagent (1 mL) [freshly prepared by mixing equal volumes of 1.0% sulfanilamide (prepared and stored in aqueous 5% phosphoric acid) and 0.1% N-naphthylethylenediamine dihydrochloride in water] was added to equal volume (1 mL) of each incubation solution after mixing. After 10 min, absorbance was measured at 540 nm using a Hewlett Packard (Agilent) 8453 UV-visible Spectroscopy. NaNO2 solutions of 1-100 μM concentrations were used to prepare a standard nitrite curve of absorbance (nm) versus concentration (μM), and the NO released by DD-1 (quantitated as NO2^−release in μM) was calculated from the standard nitrite curve by extrapolation of the absorbance.

ΔP50 ([1]; incubation time 1 h)	ΔP50 ([1]; incubation time 2 h)	ΔP50 ([1]; incubation time 4 h)	ΔP50 ([1]; incubation time 8 h)	ΔP50 ([1]; incubation time 12 h)	N (Hill coefficient) ([1]; incubation time 1 h)	P50 ([1]; incubation time 1 h)	N (Hill coefficient) ([1]; incubation time 2 h)	P50 ([1]; incubation time 2 h)	N (Hill coefficient) ([1]; incubation time 4 h)	P50 ([1]; incubation time 4 h)	N (Hill coefficient) ([1]; incubation time 8 h)	P50 ([1]; incubation time 8 h)	N (Hill coefficient) ([1]; incubation time 12 h)	P50 ([1]; incubation time 12 h)	Stability of stock solution [2]	Structure (SMILES)	NO2- release after 1 hour ([3]; 1 h incubation)	NO2- release after 16 hours ([3]; 16 h incubation)
15.3 mmHg	15.0 mmHg	16.1 mmHg	16.9 mmHg	15.6 mmHg	1.8	47.8 mmHg	1.9	47.9 mmHg	1.8	49.7 mmHg	1.8	51.8 mmHg	1.9	52.6 mmHg	–	Cc1cc(C)cc(NC(=O)Cc2ccc(OC(C)(C)C(=O)O)cc2)c1 [RSR-13, 2-[4-[2-[(3,5-dimethylphenyl)amino]-2-oxoethyl]phenoxy]-2-methylpropanoic acid, reference compound]	–	–
3.2 mmHg	6.3 mmHg	16.3 mmHg	25.4 mmHg	27.8 mmHg	2.3	35.7 mmHg	2.1	39.2 mmHg	1.9	49.9 mmHg	1.7	60.3 mmHg	1.7	64.8 mmHg	stable	Cc1cc(C)cc(NC(=O)Cc2ccc(OC(C)(C)C(=O)OCCO[N+](=O)[O-])cc2)c1 [DD-1, 2-(Nitrooxy)ethyl 2-(4-(2-((3,5-dimethylphenyl)amino)-2-oxoethyl)phenoxy)-2-methylpropanoate]	9.61 µM	5.35 µM

— patent US9765017B2, “Allosteric hemoglobin modifiers with nitric oxide releasing moiety” (VIRGINIA COMMONWEALTH UNIVERSITY, priority 2013, dated 2017)
